Measured values as given in the supplement of paper PMC10307832.

How the values were obtained:
Experiment in all cases: relative viability (nuclei count vs DMSO), 5 days (fraction); higher = more cells survive
[1] = compound: Cc1ccc2nc(NCCN)c3ncc(C)n3c2c1 + CC(C)C[C@H](NC(=O)[C@H](Cc1ccccc1)NC(=O)c1cnccn1)B(O)O [Bortezomib] (partner 0.002 µM)
Summary of the method: (§1)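 Lung cancer cell lines, seeded in 1536-well plates, were treated the following day by pin tool with a single drug or with five library-drug doses (not always all listed) in √10 steps on top of a fixed anchor-drug dose. Cells were fixed and nuclei stained in one step after 5 days, and nuclei were counted. Relative viability is the nuclei count for treated wells divided by that for vehicle wells, reported as medians of duplicate plates.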

[2] = compound: Cc1ccc2nc(NCCN)c3ncc(C)n3c2c1 + C[C@@H](Oc1cc(-c2cnn(C3CCNCC3)c2)cnc1N)c1c(Cl)ccc(F)c1Cl [Crizotinib] (partner 1 µM)
Summary of the method: as §1

[3] = compound: O=C(/C=C/c1ccccc1)NC(NC(=S)Nc1cccc2cccnc12)C(Cl)(Cl)Cl [Salubrinal] + CC(C)C[C@H](NC(=O)[C@H](Cc1ccccc1)NC(=O)c1cnccn1)B(O)O [Bortezomib] (partner 0.002 µM)
Summary of the method: as §1

[4] = compound: O=C(/C=C/c1ccccc1)NC(NC(=S)Nc1cccc2cccnc12)C(Cl)(Cl)Cl [Salubrinal] + NC(=O)Nc1cc(-c2cccc(F)c2)sc1C(=O)N[C@H]1CCCNC1 [AZD7762] (partner 0.2 µM)
Summary of the method: as §1

Cell Line	relative viability ([1]; first compound 0.04 µM)	relative viability ([1]; first compound 0.1265 µM)	relative viability ([1]; first compound 0.4 µM)	relative viability ([1]; first compound 1.265 µM)	relative viability ([1]; first compound 4 µM)	relative viability ([2]; first compound 0.04 µM)	relative viability ([2]; first compound 0.1265 µM)	relative viability ([2]; first compound 0.4 µM)	relative viability ([2]; first compound 1.265 µM)	relative viability ([2]; first compound 4 µM)	relative viability ([3]; first compound 0.08 µM)	relative viability ([3]; first compound 0.253 µM)	relative viability ([3]; first compound 0.8 µM)	relative viability ([3]; first compound 2.53 µM)	relative viability ([3]; first compound 8 µM)	relative viability ([4]; first compound 0.08 µM)	relative viability ([4]; first compound 0.253 µM)	relative viability ([4]; first compound 0.8 µM)	relative viability ([4]; first compound 2.53 µM)	relative viability ([4]; first compound 8 µM)
HOP-62	1.02	0.692	0.613	0.86	0.432	1.01	0.895	0.811	0.812	0.835	0.392	0.576	0.601	0.874	1.04	0.589	0.468	0.958	0.689	0.441
LC-2-ad	1.06	0.978	1	1.02	0.81	0.467	0.448	0.44	0.406	0.476	0.992	0.92	1.16	1	1.02	0.946	0.832	0.89	0.823	0.647
LCLC-97TM1	0.846	0.614	0.767	0.937	0.585	0.379	0.394	0.255	0.287	0.293	0.995		1.22	0.626	0.637	0.268	0.288	0.227	0.139	0.202
LCLC-103H	1.15	1.23	0.944	1.2	1.04	1.07	1.03	1.05	1.07	1.06	0.97	0.971	1.2	1	1.15	0.856	0.699	0.806	0.815	0.701
LOU-NH91	0.494	0.587	0.556	0.529	0.423	0.753	0.714	0.748	0.727	0.749	0.481	0.406	0.55	0.505	0.477	0.813	0.785	0.83	0.745	0.706
LU99A	1.26	1.08	1.07	1.2	1	0.636	0.549	0.49	0.565	0.635	1.3	1.31	1.37	0.971	0.909	0.459	0.319	0.401	0.311	0.236
LXF-289	1.01	0.97	0.987	0.984	0.994	0.806	0.834	0.842	0.857	0.856	1.06	0.654	1.06	0.969	0.851	1.25	1.06	1.17	1.09	0.931
NCI-H23	1.12	1.03	1.08	1.02	0.672	0.731	0.549	0.554	0.437	0.447	1.25	0.871	1.2	1.04	1.16	0.175	0.206	0.236	0.23	0.23
NCI-H322M	1.29	1.1	1.24	1.18	1.27	1.02	0.882	0.832	0.944	0.876	1.33	1.15	1.26	1.22	1.19	0.576	0.531	0.599	0.497	0.581
NCI-H441	0.72	0.463	0.423	0.533	0.438	0.904	0.665	0.684	0.617	0.947	0.392	0.516	0.386	0.372	0.362	1.28	0.87	1.03	0.905	0.85
NCI-H460	1.05	1.02	1.08	1.08	1.01	0.98	0.923	0.952	0.851	0.64	1.66	0.452	1.4	1.08	1.21	0.627	0.546	0.722	0.711	0.552
NCI-H596	1.01	0.937	0.978	0.976	0.971	1.06	0.929	1.03	0.961	0.851	1.1	0.807	1.01	1.13	1	1.05	1	1.07	1.16	0.865
NCI-H647	0.943	0.783	0.999	0.864	0.707	1.29	1.03	1.12	0.93	0.852	1.05	1.37	1.2	1.06	0.792	0.616	0.435	0.487	0.505	0.397
NCI-H650	0.863	0.673	0.73	0.859	0.621	0.855	0.608	0.718	0.583	0.672	0.877	0.724	1.23	0.997	0.817	1.01	1.19	1.04	0.953	0.883
NCI-H727	0.822	0.806	0.683	0.732	0.639	0.984	0.82	0.779	0.811	0.925	0.748	0.504	0.983	0.862	0.741	0.574	0.648	0.649	0.583	0.584
NCI-H838	0.878	0.9	0.615	0.631	0.739	0.844	0.777	0.795	0.789	0.762	0.82	0.749	0.983	0.911	0.608	0.961	0.957	1.06	0.962	0.951
NCI-H1355	1.25	1.19	1.02	1.14	1.06	1.1	1.15	1.04	1.01	0.983	1.32	1.15	1.2	1.32	1.22	0.788	0.711	0.821	0.691	0.691
NCI-H1437	0.628	0.467	0.474	0.539	0.557	0.96	0.968	0.965	0.952	0.915	0.667	0.474	0.68	0.535	0.465	1.19	1.1	1.16	1.11	1.04
NCI-H1651	0.966	0.954	1.07	0.972	0.676	0.732	0.795	0.838	0.888	0.814	0.972	0.925	0.994	0.925	0.921	0.464	0.423	0.546	0.484	0.388
NCI-H1666	0.878	0.8	0.762	1.03	0.689	0.998	1.01	0.874	0.852	0.907	0.858	0.732	0.746	0.776	0.984	0.793	0.863	0.831	0.704	0.926
NCI-H1703	0.34	0.329	0.329	0.347	0.234	0.89	0.679	0.623	0.709	0.563	0.365	0.268	0.242	0.322	0.293	0.124	0.11	0.139	0.123	0.122
NCI-H1734	1.04	0.965	0.942	0.935	0.999	0.673	0.733	0.747	0.607	0.706	0.9	0.941	1.11	0.969	0.981	0.596	0.657	0.613	0.572	0.515
NCI-H1755	1.02	0.99	0.897	0.956	1.02	0.94	0.891	0.857	0.935	0.863	1.06	0.968	1.05	1	0.945	0.668	0.406	0.517	0.41	0.584
NCI-H1792	0.963	0.915	0.912	0.94	0.968	1.03	1.03	0.946	1.01	0.905	1.2		1.23	0.92	0.806	0.514		0.982	0.571	0.354
NCI-H1915	0.977		0.685	0.964	0.915	0.823		0.816	0.868	0.914	0.98	0.56	1.09	1.03	0.954	0.713		0.718	0.71	0.676
NCI-H1975	0.363	0.384	0.428	0.375	0.407	1.05	0.965	0.957	0.771	0.757	0.419	0.362	0.353	0.344	0.355	0.691	0.611	0.853	0.744	0.601
NCI-H1993	1.21	1.07	0.921	1.11	0.875	0.822	0.896	0.811	0.812	0.826	1.09	1.05	1.31	1.01	1.28	0.909	0.744	0.871		0.612
